{"source": "patent US20260335255A1", "about": "“PHARMACEUTICAL COMPOSITIONS” (priority 2022, published 2026)", "origin": "cited, not measured here", "key": {"patients [1]": {"test_system": "patients", "conditions": "for side effects: b8: single subanesthetic dose"}, "patients with depression": {"test_system": "patients with depression", "conditions": "0.5 mg/kg; 40 min infusion"}, "patients [2]": {"test_system": "patients", "conditions": "anesthetic use; Pediatric Anesthesia 2005 15: 91-97"}}, "note": "Counter-ions that a name gives are not always drawn."}
{"smiles": "CNC1(c2ccccc2Cl)CCCCC1=O", "note": "(racemic) [Ketamine]", "values": [{"measurement": "effect on memory", "setting": "patients [1]; background", "value": "direct effects on free recall and recognition memory"}, {"measurement": "side effects", "setting": "patients [1]; background", "value": "transient dissociation and psychotomimetic side effects and hemodynamic changes"}, {"measurement": "depressive symptoms", "setting": "patients [1]; single subanesthetic dose", "value": "reduces depressive symptoms"}, {"measurement": "concentration needed for therapeutic efficacy in patients with depression", "setting": "patients with depression", "value": 185, "unit": "ng/mL"}, {"measurement": "thought disorder and withdrawal-retardation", "setting": "healthy volunteers", "value": "significant levels of thought disorder and withdrawal-retardation"}, {"measurement": "solubility in water", "value": 200, "unit": "mg/mL"}]}
{"smiles": "CN[C@]1(c2ccccc2Cl)CCCCC1=O", "note": "[S(+) ketamine]", "values": [{"measurement": "duration of action compared with racemic ketamine", "setting": "patients [2]", "value": "significantly shorter acting than racemic ketamine"}]}
{"smiles": "CNC1(c2ccccc2Cl)CCCCC1=O", "note": "(centres unmarked) [ketamine hydrochloride, Ketamine Hydrochloride]", "values": [{"measurement": "side effects", "setting": "patients [1]; background", "value": "blurred vision, double vision, dream-like feeling, dizziness, drowsiness, jerky muscle movements, loss of appetite, nausea, vomiting, sleep problems such as insomnia"}]}
